Experimental data taken from paper PMC7794397, “Curbing gastrointestinal infections by defensin fragment modifications without harming commensal microbiota” (Communications Biology, 2021).
In brackets after ≈: the same amount, converted by molar mass. Like-named read-outs stand apart in the source and are kept apart here. Non-standard residues stand in square brackets, D forms with d. Residues, ends and D or L forms follow the SMILES beside them. ξ: configuration not given here. *: point of attachment. X2 = CCCCCCCCCCCCCCCC(=O)OCC(COC(=O)CCC(=O)*)OC(=O)CCCCCCCCCCCCCCC; X1 = CCCCCCCCCCCCCCCC(=O)OCC(C*)OC(=O)CCCCCCCCCCCCCCC; Palmitoyl = CCCCCCCCCCCCCCCC(=O)*; ξK = NCCCCC(N)C(=O)O; ξC = NC(CS)C(=O)O

Tests used:
ESKAPE pathogens = test: organism not typed
Source text: (§1) Supplementary Table 1. Antibiogram of ESKAPE pathogens used in this study.
(§2) Bacteria susceptible to all (blue color) or intermediate/resistant to at least one (red color) of antibiotics per class following the EUCAST breakpoints. Black color is shown if the susceptibility to agents in that class is not assessed. Values are minimal inhibition concentrations (MIC) in µg/ml or for Chloramphenicol in diameter (mm). […]

E. coli = test: Antibiogram of ESKAPE pathogens; type: cell-based; conditions: Escherichia coli, column assigned by order in flattened table
Source text: as §1, §2

[1] = tested on: multidrug resistant bacteria belonging to the ESKAPE pathogen panel; type: cell-based; conditions: broth microdilution, ESKAPE panel
Experimental: Bactericidal activity was assessed by broth microdilution assay. […] After incubation, 100 µl of 6% TSB (w/v) were added and absorbance was measured at 600 nm (Tecan, Switzerland) and monitored for 18 h. Afterward, 100 µl per well were plated on LB agar to determine the numbers of viable bacteria microbiologically. Bactericidal activity is expressed as the LC99.9, the lowest concentration that killed ≥99.9 % of bacteria.

[2] = tested on: several pathogenic bacteria; test: Radial diffusion assay, all tested strains; type: cell-based
Experimental: (§3) Antimicrobial activity was analyzed by radial diffusion assay. Log-phase bacteria were cultivated for up to 18 h in TSB (TSB, Becton Dickinson, USA), washed and diluted to 4 × 10^6 CFU in 10 ml agar. Bacteria were incubated in 10 ml of 10 mM sodium phosphate, pH 7.4, containing 0.3 mg/ml of TSB powder and 1% (w/v) low EEO-agarose (AppliChem). 1 µg of each lipopeptide was pipetted into punched wells in a final volume of 4 µl and diffused into the gel for 3 h at 37 °C. After that, a nutrient-rich gel with 6% TSB (w/v) and 1% agarose in 10 mM sodium phosphate buffer was poured on top of the first gel and incubated for up to 24 h at 37 °C. Then the diameter of inhibition zones was measured.

E. faecium = test: microbe, parasite or virus in culture; conditions: for MIC: Enterococcus faecium
Source text: as §1, §2

S. aureus [3] = test: Antibiogram of ESKAPE pathogens; type: cell-based; conditions: Staphylococcus aureus
Source text: as §1, §2

P. aeruginosa = type: cell-based; conditions: 1 µg peptide/well, 2.5 mm = empty well
Experimental: as §3

S. aureus [4] = type: cell-based; conditions: 1 µg peptide/well, 2.5 mm = empty well
Experimental: as §3

S. Typhimurium = type: cell-based; conditions: for diameter of inhibition zone: 1 µg peptide/well, 2.5 mm = empty well
Experimental: as §3

C. rodentium = type: cell-based; conditions: 1 µg peptide/well, 2.5 mm = empty well
Experimental: as §3

S. aureus ATCC 25923 = type: cell-based; conditions: for Fold change in MIC: relative to MIC of first passage, Mean
Experimental: Development of resistance to the peptides was assessed with S. aureus and S. Typhimurium. […] Bacteria were cultured overnight at 37 °C at 150 rpm in TSB. Bacteria were washed twice with 10 mM sodium phosphate buffer containing 1% (w/v) TSB. […] After incubation, 100 µl of 6% TSB (w/v) was added and plates incubated in a humidified atmosphere for 21 h at 37 °C and 150 rpm.
The MIC, the lowest concentration of peptide/antibiotic that caused a lack of visible bacterial growth, was determined for each bacterial species. […] This was repeated for 25 passages.

O=C(N[C@H](CO)[C@H](O)c1ccc([N+](=O)[O-])cc1)C(Cl)Cl [Chloramphenicol]
diameter (antibiogram) (ESKAPE pathogens; one strain of E. faecium, S. aureus or K. pneumoniae, not assignable): 22 mm

C[C@@H](O)[C@H]1C(=O)N2C(C(=O)O)=C(SCCN=CN)C[C@H]12 [Imipenem]
MIC (E. coli; strain DSM682): 2 µg/mL (≈ 6.68 µM) | MIC (E. coli; strain DSM8695): ≤ 0.25 µg/mL

CO/N=C(\C(=O)N[C@@H]1C(=O)N2C(C(=O)O)=C(COC(N)=O)CS[C@H]12)c1ccco1 [Cefuroxim]
MIC (E. coli; strain DSM682): ≥ 64 µg/mL

CNC(C)C1CCC(N)C(OC2C(N)CC(N)C(OC3OCC(C)(O)C(NC)C3O)C2O)O1 (centres unmarked) [Gentamicin]
MIC (E. coli; strain DSM8695): ≤ 1 µg/mL

C[C@@H](O)[C@H]1C(=O)N2C(C(=O)O)=C(S[C@@H]3CN[C@H](C(=O)N(C)C)C3)[C@H](C)[C@H]12 [Meropenem]
MIC (E. coli; strain DSM682): 8 µg/mL (≈ 20.9 µM) | MIC (E. coli; strain DSM8695): ≤ 0.25 µg/mL

CCN1CCN(C(=O)N[C@@H](C(=O)N[C@@H]2C(=O)N3[C@@H]2SC(C)(C)[C@@H]3C(=O)O)c2ccccc2)C(=O)C1=O [Piperacillin]
MIC (E. coli; strain DSM8695): ≤ 4 µg/mL

CCCCCCCCCCCCCCCC(=O)NC(CSCC(COC(=O)CCCCCCCCCCCCCCC)OC(=O)CCCCCCCCCCCCCCC)C(=O)N[C@@H](CCCNC(=N)N)C(=O)NCC(=O)N[C@@H](CCCCN)C(=O)N[C@@H](C)C(=O)N[C@@H](CCCCN)C(=O)N[C@@H](CS)C(=O)N[C@@H](CS)C(=O)N[C@@H](CCCCN)C(=O)O (some centres unmarked) [Pam-4] (Palmitoyl-[ξC](X1)RGKAKCCK-OH; C-terminus assumed)
bactericidal activity (in words) [1]: no or low bactericidal activity | antimicrobial activity (in words) [2]: generally inactive

CCCCCCCCCC(=O)N[C@@H](Cc1c[nH]c2ccccc12)C(=O)N[C@H](CC(N)=O)C(=O)N[C@@H](CC(=O)O)C(=O)N[C@@H]1C(=O)NCC(=O)N[C@@H](CCCN)C(=O)N[C@@H](CC(=O)O)C(=O)N[C@H](C)C(=O)N[C@@H](CC(=O)O)C(=O)NCC(=O)N[C@H](CO)C(=O)N[C@@H]([C@H](C)CC(=O)O)C(=O)N[C@@H](CC(=O)c2ccccc2N)C(=O)O[C@@H]1C [Daptomycin]
MIC (antibiogram) (E. faecium): 4 µg/mL (≈ 2.47 µM)

CN(C)[C@@H]1C(=O)C(C(N)=O)=C(O)[C@@]2(O)C(=O)C3=C(O)c4c(O)cccc4[C@@](C)(O)[C@H]3C[C@@H]12 [Tetracyclin]
MIC (antibiogram) (ESKAPE pathogens; one strain of A. baumannii, P. aeruginosa or E. coli, not assignable): ≥ 256 µg/mL

CCCCCCCCCCCCCCCC(=O)OCC(COC(=O)CCC(=O)N[C@@H](CCCNC(=N)N)C(=O)NCC(=O)N[C@@H](CCCCN)C(=O)N[C@@H](C)C(=O)N[C@@H](CCCCN)C(=O)N[C@@H](CS)C(=O)N[C@@H](CS)C(=O)N[C@@H](CCCCN)C(=O)O)OC(=O)CCCCCCCCCCCCCCC (some centres unmarked) [Pam-1] (X2-RGKAKCCK-OH; C-terminus assumed)
bactericidal activity (in words) [1]: no or low bactericidal activity | antimicrobial activity (in words) [2]: generally inactive

CN[C@H](CC(C)C)C(=O)N[C@H]1C(=O)N[C@@H](CC(N)=O)C(=O)N[C@H]2C(=O)N[C@H]3C(=O)N[C@H](C(=O)N[C@H](C(=O)O)c4cc(O)cc(O)c4-c4cc3ccc4O)[C@H](O)c3ccc(c(Cl)c3)Oc3cc2cc(c3O[C@@H]2O[C@H](CO)[C@@H](O)[C@H](O)[C@H]2O[C@H]2C[C@](C)(N)[C@H](O)[C@H](C)O2)Oc2ccc(cc2Cl)[C@H]1O [Vancomycin]
MIC (E. faecium; DSM2918, read-out: MIC (antibiogram)): ≥ 32 µg/mL | MIC (E. faecium; read-out: MIC (antibiogram)): ≥ 32 µg/mL | MIC (S. aureus [3]; ATCC33592, read-out: MIC (antibiogram)): 1 µg/mL (≈ 0.69 µM) | MIC (S. aureus [3]; ATCC43300, read-out: MIC (antibiogram)): 1 µg/mL (≈ 0.69 µM) | MIC (S. aureus [3]; DSM20231, read-out: MIC (antibiogram)): 1 µg/mL (≈ 0.69 µM)

RGKAKCCK [Octapeptide, the C-terminal eight amino acids of human β-defensin 1]
diameter of inhibition zone (P. aeruginosa; experiment 1 of 3): 3.5 mm | diameter of inhibition zone (P. aeruginosa; experiment 2 of 3): 4 mm | diameter of inhibition zone (P. aeruginosa; experiment 3 of 3): 4 mm | diameter of inhibition zone (S. aureus [4]; experiment 1 of 3): 6 mm | diameter of inhibition zone (S. aureus [4]; experiment 2 of 3): 7 mm | diameter of inhibition zone (S. aureus [4]; experiment 3 of 3): 6.5 mm | diameter of inhibition zone (S. Typhimurium; experiment 1 of 3): 2.5 mm | diameter of inhibition zone (S. Typhimurium; experiment 2 of 3): 2.5 mm | diameter of inhibition zone (S. Typhimurium; experiment 3 of 3): 2.5 mm | inhibition of S. Typhimurium growth (in words) (S. Typhimurium; radial diffusion assay): failed to inhibit | diameter of inhibition zone (C. rodentium; experiment 1 of 3): 5.5 mm | diameter of inhibition zone (C. rodentium; experiment 2 of 3): 5 mm | diameter of inhibition zone (C. rodentium; experiment 3 of 3): 5.5 mm

CC1(C)S[C@@H]2[C@H](NC(=O)[C@H](N)c3ccccc3)C(=O)N2[C@H]1C(=O)O [Ampicillin]
MIC (E. coli; strain DSM682): ≥ 32 µg/mL | MIC (E. coli; strain DSM8695): 8 µg/mL (≈ 22.9 µM)

NC[C@H]1O[C@H](O[C@H]2[C@H](O)[C@@H](O[C@H]3O[C@H](CO)[C@@H](O)[C@H](N)[C@H]3O)[C@H](N)C[C@@H]2N)[C@H](N)C[C@@H]1O [Tobramycin]
MIC (E. coli; strain DSM8695): ≤ 1 µg/mL

CCCCCCCCCCCCCCCC(=O)NCCCCC(NC(=O)CCCCCCCCCCCCCCC)C(=O)N[C@@H](CCCNC(=N)N)C(=O)NCC(=O)N[C@@H](CCCCN)C(=O)N[C@@H](C)C(=O)N[C@@H](CCCCN)C(=O)N[C@@H](CS)C(=O)N[C@@H](CS)C(=O)N[C@@H](CCCCN)C(=O)O (some centres unmarked) [Pam-5] (Palmitoyl-[ξK](Palmitoyl)RGKAKCCK-OH; C-terminus assumed)
bactericidal activity (in words) [1]: moderate effects | antimicrobial activity (in words) [2]: generally inactive

CO[C@H]1/C=C/O[C@@]2(C)Oc3c(C)c(O)c4c(O)c(c(/C=N/N5CCN(C)CC5)c(O)c4c3C2=O)NC(=O)/C(C)=C\C=C\[C@H](C)[C@H](O)[C@@H](C)[C@@H](O)[C@@H](C)[C@H](OC(C)=O)[C@@H]1C [Rifampicin, reference compound]
Fold change in MIC (S. aureus ATCC 25923; Day (passage) 0): 1.0 | Fold change in MIC (S. aureus ATCC 25923; Day (passage) 1): 0.8 | Fold change in MIC (S. aureus ATCC 25923; Day (passage) 2): 1.0 | Fold change in MIC (S. aureus ATCC 25923; Day (passage) 3): 1.0 | Fold change in MIC (S. aureus ATCC 25923; Day (passage) 4): 1.7 | Fold change in MIC (S. aureus ATCC 25923; Day (passage) 5): 3.7 | Fold change in MIC (S. aureus ATCC 25923; Day (passage) 6): 43.3 | Fold change in MIC (S. aureus ATCC 25923; Day (passage) 7): 87.3 | Fold change in MIC (S. aureus ATCC 25923; Day (passage) 8): 163.3 | Fold change in MIC (S. aureus ATCC 25923; Day (passage) 9): 348.0 | Fold change in MIC (S. aureus ATCC 25923; Day (passage) 10): 768.7 | Fold change in MIC (S. aureus ATCC 25923; Day (passage) 11): 1366.0 | Fold change in MIC (S. aureus ATCC 25923; Day (passage) 12): 2731.4 | Fold change in MIC (S. aureus ATCC 25923; Day (passage) 13): 2732.0 | Fold change in MIC (S. aureus ATCC 25923; Day (passage) 14): 3200.7 | Fold change in MIC (S. aureus ATCC 25923; Day (passage) 15): 4267.4 | Fold change in MIC (S. aureus ATCC 25923; Day (passage) 16): 4267.4 | Fold change in MIC (S. aureus ATCC 25923; Day (passage) 17): 4268.0 | Fold change in MIC (S. aureus ATCC 25923; Day (passage) 18): 4267.4 | Fold change in MIC (S. aureus ATCC 25923; Day (passage) 19): 2733.4 | Fold change in MIC (S. aureus ATCC 25923; Day (passage) 20): 2731.5 | Fold change in MIC (S. aureus ATCC 25923; Day (passage) 21): 2731.4 | Fold change in MIC (S. aureus ATCC 25923; Day (passage) 22): 2731.4 | Fold change in MIC (S. aureus ATCC 25923; Day (passage) 23): 2733.4 | Fold change in MIC (S. aureus ATCC 25923; Day (passage) 24): 2741.4 | Fold change in MIC (S. aureus ATCC 25923; Day (passage) 25): 2816.0 | increase of MIC (S. aureus ATCC 25923; after 15 passages): ≥ 4096 fold

C[C@H]1[C@H](NC(=O)/C(=N\OC(C)(C)C(=O)O)c2csc(N)n2)C(=O)N1S(=O)(=O)O [Aztreonam]
MIC (ESKAPE pathogens; read-out: MIC (antibiogram)): > 256 µg/mL
